In patent US9096591B2, “Tetracyclic compounds” (Medivation Technologies, Inc., priority 2007, dated 2015):
Read-outs that look alike come from different tables or passages of the source.

Columns and labels:
[1] = biological target: T1, human recombinant adrenergic α2A receptor (Homo sapiens, UniProt P08913); test: Adrenergic α2A radioligand binding ([3H]MK-912); set-up: Inhibition of ligand binding, Adren. alpha2A: concentration or dose not given beside the values; settings: for Inhibition of ligand binding, Adren. alpha2A: percent inhibition of specific binding; for inhibition at 1 µM: compounds screened at 1 μM, read-out: Inhibition of ligand binding, Adren. alpha2A (percent inhibition of specific binding)
T1 construct: expressed in transfected cells; host or cells: insect Sf9 cells
T1 sequence (P08913 1-465): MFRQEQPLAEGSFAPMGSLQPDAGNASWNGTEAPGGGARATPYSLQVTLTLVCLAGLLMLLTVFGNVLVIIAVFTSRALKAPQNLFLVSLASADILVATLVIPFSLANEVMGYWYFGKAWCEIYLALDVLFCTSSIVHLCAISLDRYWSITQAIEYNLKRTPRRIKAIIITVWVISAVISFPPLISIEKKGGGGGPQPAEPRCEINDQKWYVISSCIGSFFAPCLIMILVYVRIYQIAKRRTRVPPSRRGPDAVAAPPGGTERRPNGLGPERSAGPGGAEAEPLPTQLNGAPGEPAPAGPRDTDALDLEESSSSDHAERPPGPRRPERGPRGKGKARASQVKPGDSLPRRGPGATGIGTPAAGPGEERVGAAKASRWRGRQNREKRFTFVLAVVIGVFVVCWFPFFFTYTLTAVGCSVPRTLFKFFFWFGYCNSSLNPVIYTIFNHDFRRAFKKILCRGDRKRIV
Outline: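 Membranes from Sf9 cells expressing the receptor were incubated with 1 nM [3H]MK-912 for 60 minutes at 25° C in 50 mM Tris-HCl pH 7.4, 12.5 mM MgCl2, 2 mM EDTA. 10 μM WB-4101 defined non-specific binding. Values are percent inhibition of specific bound radioactivity after filtration.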

[2] = biological target: T2, human recombinant serotonin (5-Hydroxytryptamine) 5-HT2A receptor (Homo sapiens, UniProt P28223); test: Serotonin 5-HT2A radioligand binding ([3H]Ketanserin); settings: for Inhibition of ligand binding, Ser. 5-HT2A: percent inhibition of specific binding; for inhibition at 1 µM: read-out: Inhibition of ligand binding, Ser. 5-HT2A (percent inhibition of specific binding)
T2 construct: expressed in transfected cells; host or cells: CHO-K1 cells
T2 sequence (P28223 whole entry): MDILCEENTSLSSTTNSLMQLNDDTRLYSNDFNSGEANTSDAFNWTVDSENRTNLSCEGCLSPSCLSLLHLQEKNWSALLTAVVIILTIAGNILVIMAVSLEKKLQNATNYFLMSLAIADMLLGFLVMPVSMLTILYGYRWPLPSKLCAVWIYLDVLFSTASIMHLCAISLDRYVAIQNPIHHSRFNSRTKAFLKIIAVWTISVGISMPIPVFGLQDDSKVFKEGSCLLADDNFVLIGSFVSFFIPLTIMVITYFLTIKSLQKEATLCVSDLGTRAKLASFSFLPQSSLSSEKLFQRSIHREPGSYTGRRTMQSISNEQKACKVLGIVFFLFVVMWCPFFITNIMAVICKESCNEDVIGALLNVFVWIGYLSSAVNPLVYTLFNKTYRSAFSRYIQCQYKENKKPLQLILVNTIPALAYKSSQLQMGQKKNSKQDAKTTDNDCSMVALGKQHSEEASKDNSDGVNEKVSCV
Description: (§1) Compounds of the invention were incubated with 0.5 nM [^3H]Ketanserin for 60 minutes at 25° C. Non-specific binding was estimated in the presence of 1 μM Mianserin. Receptor proteins were filtered and washed, the filters were then counted to determine [^3H]Ketanserin specifically bound. […] Biochemical assay results are presented as the percent inhibition of specific binding in Table 6.

[3] = biological target: T3, human recombinant histamine H1 receptor (Homo sapiens, UniProt P35367); test: Histamine H1 radioligand binding ([3H]Pyrilamine)
T3 construct: expressed in transfected cells; host or cells: CHO cells
T3 sequence (P35367 whole entry): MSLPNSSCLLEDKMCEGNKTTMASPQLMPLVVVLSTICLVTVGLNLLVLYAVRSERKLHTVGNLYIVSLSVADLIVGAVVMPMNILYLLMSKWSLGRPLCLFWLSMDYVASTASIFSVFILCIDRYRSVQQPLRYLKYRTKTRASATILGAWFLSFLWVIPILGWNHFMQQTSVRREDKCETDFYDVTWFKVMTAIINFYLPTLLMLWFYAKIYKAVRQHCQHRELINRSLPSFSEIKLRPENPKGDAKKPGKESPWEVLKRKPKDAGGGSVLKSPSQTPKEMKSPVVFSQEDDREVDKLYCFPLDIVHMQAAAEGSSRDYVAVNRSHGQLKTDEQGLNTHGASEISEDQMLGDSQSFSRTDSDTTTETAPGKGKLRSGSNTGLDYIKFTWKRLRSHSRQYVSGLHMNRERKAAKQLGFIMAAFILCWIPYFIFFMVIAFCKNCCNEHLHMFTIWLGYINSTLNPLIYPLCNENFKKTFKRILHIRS
Outline: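 Receptor expressed in CHO cells, assayed in 50 mM Tris-HCl pH 7.4 with 2 mM MgCl2, 100 mM NaCl, 250 mM sucrose. Compounds tested at 1 μM in 1% DMSO; non-specific binding set with 1 μM pyrilamine. Filter-bound radioactivity counted; values are percent inhibition of specific binding.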

[4] = biological target: T4, human recombinant serotonin (5-Hydroxytryptamine) 5-HT6 receptor (Homo sapiens, UniProt P50406); test: Serotonin 5-HT6 radioligand binding ([3H]LSD); set-up: Inhibition of ligand binding, Ser. 5-HT6: concentration or dose not given beside the values; settings: for Inhibition of ligand binding, Ser. 5-HT6: percent inhibition of specific binding; for inhibition at 1 µM: compounds screened at 1 μM, read-out: Inhibition of ligand binding, Ser. 5-HT6 (percent inhibition of specific binding)
T4 construct: expressed in transfected cells; host or cells: human HeLa cells
T4 sequence (P50406 whole entry): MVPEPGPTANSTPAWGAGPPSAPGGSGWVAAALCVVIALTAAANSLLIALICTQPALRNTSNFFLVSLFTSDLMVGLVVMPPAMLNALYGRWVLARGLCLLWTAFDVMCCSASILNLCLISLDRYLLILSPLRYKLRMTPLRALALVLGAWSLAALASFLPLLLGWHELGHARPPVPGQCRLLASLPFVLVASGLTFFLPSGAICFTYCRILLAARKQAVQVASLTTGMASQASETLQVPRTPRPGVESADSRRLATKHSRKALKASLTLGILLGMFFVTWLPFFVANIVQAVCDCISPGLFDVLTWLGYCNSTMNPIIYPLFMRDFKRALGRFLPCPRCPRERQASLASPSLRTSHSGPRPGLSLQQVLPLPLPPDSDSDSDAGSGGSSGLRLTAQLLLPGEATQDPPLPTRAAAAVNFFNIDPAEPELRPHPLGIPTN
Excerpt: Receptor proteins were filtered and washed, the filters were then counted to determine [3H]LSD specifically bound. […] Biochemical assay results are presented as the percent inhibition of specific binding in Table 6.

[5] = biological target: T5, human recombinant serotonin (5-Hydroxytryptamine) 5-HT2C receptor (Homo sapiens, UniProt P28335); test: Serotonin 5-HT2C radioligand binding ([3H]Mesulergine); set-up: Inhibition of ligand binding, Ser. 5-HT2C: concentration or dose not given beside the values; settings: for Inhibition of ligand binding, Ser. 5-HT2C: percent inhibition of specific binding; for inhibition at 1 µM: compounds screened at 1 μM, read-out: Inhibition of ligand binding, Ser. 5-HT2C (percent inhibition of specific binding)
T5 construct: expressed in transfected cells; host or cells: CHO-K1 cells
T5 sequence (P28335 33-458): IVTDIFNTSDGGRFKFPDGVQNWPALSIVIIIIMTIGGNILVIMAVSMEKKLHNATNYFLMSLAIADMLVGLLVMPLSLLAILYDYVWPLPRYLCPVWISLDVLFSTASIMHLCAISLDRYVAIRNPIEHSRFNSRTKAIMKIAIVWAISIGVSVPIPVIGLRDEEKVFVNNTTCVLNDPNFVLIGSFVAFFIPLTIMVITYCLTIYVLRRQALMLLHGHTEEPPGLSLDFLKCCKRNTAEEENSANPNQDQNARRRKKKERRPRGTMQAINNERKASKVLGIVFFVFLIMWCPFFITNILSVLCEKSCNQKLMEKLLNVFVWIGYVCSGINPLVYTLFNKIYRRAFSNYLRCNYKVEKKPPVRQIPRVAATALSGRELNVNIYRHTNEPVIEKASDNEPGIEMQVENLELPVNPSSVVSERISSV
Description: as §1, with “1” for “0.5”, “[^3H]Mesulergine” for “[^3H]Ketanserin”

[6] = percent inhibition of specific binding, screened at 1 μM, read-out: Inhibition of ligand binding, Hist. H1
[7] = compounds screened at 1 μM, read-out: Inhibition of ligand binding, Hist. H1 (percent inhibition of specific binding)

| Structure (SMILES) | Inhibition of ligand binding, Adren. alpha2A [1] | Inhibition of ligand binding, Ser. 5-HT2A [2] | inhibition at 1 µM [3, 6] | Inhibition of ligand binding, Ser. 5-HT6 [4] | Inhibition of ligand binding, Ser. 5-HT2C [5] | inhibition at 1 µM [1] | inhibition at 1 µM [2] | inhibition at 1 µM [3, 7] | inhibition at 1 µM [4] | inhibition at 1 µM [5] |
| --- | --- | --- | --- | --- | --- | --- | --- | --- | --- | --- |
| CN1CCc2c(c3cc(Cl)ccc3n2CCC(=O)N2CCCCC2)C1 [Compound 326, 3-(8-chloro-1,2,3,4-tetrahydro-2-methylpyrido[4,3-b]indol-5-yl)-1-(piperidin-1-yl)propan-1-one] | 55% | 27% | 47% | 26% | 31% | – | – | – | – | – |
| CN1CCc2c(c3cc(Cl)ccc3n2CCC(=O)N2CCOCC2)C1 [Compound 328, 3-(8-chloro-1,2,3,4-tetrahydro-2-methylpyrido[4,3-b]indol-5-yl)-1-morpholinopropan-1-one] | 45% | 46% | 56% | 29% | 29% | – | – | – | – | – |
| CN1CCc2c(c3ccccc3n2CCc2ccccn2)C1 [Compound 329, 2,3,4,5-tetrahydro-2-methyl-5-(2-(pyridin-2-yl)ethyl)-1H-pyrido[4,3-b]indole] | 37% | 70% | 18% | 15% | 54% | – | – | – | – | – |
| Cc1ccc2c(c1)c1c(n2CC(=O)N2CCOCC2)CCN(C)C1 [Compound 330, 2-(1,2,3,4-tetrahydro-2,8-dimethylpyrido[4,3-b]indol-5-yl)-1-morpholinoethanone] | 1% | 14% | 8% | 19% | 17% | – | – | – | – | – |
| Cc1ccc2c(c1)c1c(n2CCCc2ccc(C(F)(F)F)nc2)CCN(C)C1 [Compound 331, 5-(3-(6-(trifluoromethyl)pyridin-3-yl)propyl)-2,3,4,5-tetrahydro-2,8-dimethyl-1H-pyrido[4,3-b]indole] | 50% | 93% | 102% | 100% | 72% | – | – | – | – | – |
| CCOc1ccc(CCn2c3c(c4cc(C)ccc42)CN(C)CC3)cc1 [Compound 334, 5-[2-(4-Ethoxy-phenyl)-ethyl]-2,8-dimethyl-2,3,4,5-tetrahydro-1H-pyrido[4,3-b]indole] | 101% | 101% | 99% | 101% | 97% | – | – | – | – | – |
| Cc1ccc2c(c1)c1c(n2CCc2ccc(OC(C)(C)C)cc2)CCN(C)C1 [Compound 335, 5-(4-tert-butoxyphenethyl)-2,3,4,5-tetrahydro-2,8-dimethyl-1H-pyrido[4,3-b]indole] | 31% | 97% | 96% | 9% | 72% | – | – | – | – | – |
| COc1ccc(CCn2c3c(c4cc(Cl)ccc42)CN(C)CC3)cc1 [Compound 336, 8-Chloro-5-[2-(4-methoxy-phenyl)-ethyl]-2-methyl-2,3,4,5-tetrahydro-1H pyrido[4,3-b]indole] | 96% | 96% | 107% | 104% | 99% | – | – | – | – | – |
| COc1ccc(CCn2c3c(c4cc(Cl)ccc42)CN(C)CC3)cc1F [Compound 337, 5-(3-fluoro-4-methoxyphenethyl)-8-chloro-2,3,4,5-tetrahydro-2-methyl-1H-pyrido[4,3-b]indole] | 97% | 101% | 99% | 104% | 94% | – | – | – | – | – |
| CN1CCc2c(c3ccncc3n2CCc2ccccn2)C1 [Compound 481, 7-aza-2-methyl-5-(2-(pyridin-2-yl)ethyl)-2,3,4,5-tetrahydro-1H-pyrido[4,3-b]indole] | – | – | – | – | – | 3% | 27% | 4% | 14% | 20% |
| CN1CCc2c(c3ncccc3n2CCc2ccncc2)C1 [Compound 482, 9-aza-2-methyl-5-(2-(pyridin-4-yl)ethyl)-2,3,4,5-tetrahydro-1H-pyrido[4,3-b]indole] | – | – | – | – | – | -17% | -7% | -2% | 4% | 17% |
| CN1CCc2c(c3ccncc3n2CCc2ccncc2)C1 [Compound 483, 7-aza-2-methyl-5-(2-(pyridin-4-yl)ethyl)-2,3,4,5-tetrahydro-1H-pyrido[4,3-b]indole] | – | – | – | – | – | -7% | 2% | -5% | 13% | 9% |
| CN1CCc2c(c3ncccc3n2CCc2ccccn2)C1 [Compound 484, 9-aza-2-methyl-5-(2-(pyridin-2-yl)ethyl)-2,3,4,5-tetrahydro-1H-pyrido[4,3-b]indole] | – | – | – | – | – | 28% | 39% | 7% | 14% | 31% |
| Cc1ccc(CCn2c3c(c4cc(I)ccc42)CN(C)CC3)cn1 [Compound 485, 2,3,4,5-tetrahydro-8-iodo-2-methyl-5-(2-(6-methylpyridin-3-yl)ethyl)-1H-pyrido[4,3-b]indole] | – | – | – | – | – | 86% | 69% | 105% | 94% | 91% |
| CN1CCc2c(c3cc(I)ccc3n2CC(=O)N2CCCCC2)C1 [Compound 486, 2-(1,2,3,4-tetrahydro-8-iodo-2-methylpyrido[4,3-b]indol-5-yl)-1-(piperidin-1-yl)ethanone] | – | – | – | – | – | 4% | 19% | 28% | 14% | 31% |
| Cc1ccc(CCn2c3c(c4cc(Br)ccc42)CN(C)CC3)cn1 [Compound 487, 8-bromo-2-methyl-5-(2-(6-methylpyridin-3-yl)ethyl)-2,3,4,5-tetrahydro-1H-pyrido[4,3-b]indole] | – | – | – | – | – | 88% | 87% | 98% | 94% | 84% |
